The target in this assay is FtsQ(50–276) (Escherichia coli, UniProt P06136). It is filed as biochemical, E. coli. The following applies: peptide 125 μM, FtsQ(50–276) 50 μM, 37 °C, 1 or 3 h. Details: pET16b FtsQ(50˗276), a His6 fusion; made in house; host or cells: Escherichia coli BL21 DE3. As for the experimental part: 1.5 Protein modification assay
To determine the reactivity of the different modifiers FtsQ(50˗276) was diluted to a concentration of 100 µM in 20 mM NH4HCO3 buffer (pH 7.6, 150 mM NaCl). The individual peptides were diluted to a concentration of 250 μM in the same buffer. Equal volumes of both solutions were mixed and incubated at 37 °C for the given time period (1 h or 3 h). The reaction was quenched using 5x SDS sample buffer (pH 6.8, 1.875 g TRIS-Cl, 25 mL glycerol, 5 g SDS, 12.5 mL β-mercaptoethanol, 0.5 % bromphenol blue and add 50 mL ddH2O). Samples were heated to 96 °C for 2 min and subsequently analysed by 17 % tris/tricine PAGE (15 min at 90 V and then 3:45 h at 150 V). PageRuler™ Prestained Protein Ladder, 10 to 180 kDa (Thermo Scientific™) was used as a ladder.
Staining was performed using standard Coomassie Staining Solution (40 mL EtOH, 0.3 g Coomassie Blue R250, 0.3 g Coomassie Blue G250, ad 100 mL ddH2O.) and then destained using water.
17 % Tris/Tricine gel (2x):
Running gel: 1.6 mL H2O, 5.5 mL AB-mix, 2.5 mL Buffer A, 100 μL 10% APS, 10 μL 1% TEMED Stacking gel: 2.1 mL H2O, 0.5 mL AB-mix, 0.38 mL Buffer A, 50 μL 10% APS, 5 μL 1% TEMED […]
Buffer A (4x) pH 8.45 3M Tris, 0.3 % SDS; Anode Buffer (10x) pH 8.8, 3M Tris; Cathode buffer (10x) 1M Tris, […]

The text below walks through data of publication PMC9413201, “Covalent Proteomimetic Inhibitor of the Bacterial FtsQB Divisome Complex” (Journal of the American Chemical Society, 2022).

Numbered stars: 1 amine (or outer) side, 2 acyl side, 3 side chain; on linkers, the order of the positions; unused ones are H or OH. Bridge positions count the residues as written; N and C are the ends. Square brackets hold non-standard residues; d marks the D form. Peptide text beside a SMILES is read from it. * marks the point of attachment. X1 = O=C([C@H](CCCCCC=[*:3])N[*:1])[*:2]; Nle = CCCC[C@H](N)C(=O)O; BrAc = O=C(CBr)*

FtsQ(50–276), sequence (P06136 50-276): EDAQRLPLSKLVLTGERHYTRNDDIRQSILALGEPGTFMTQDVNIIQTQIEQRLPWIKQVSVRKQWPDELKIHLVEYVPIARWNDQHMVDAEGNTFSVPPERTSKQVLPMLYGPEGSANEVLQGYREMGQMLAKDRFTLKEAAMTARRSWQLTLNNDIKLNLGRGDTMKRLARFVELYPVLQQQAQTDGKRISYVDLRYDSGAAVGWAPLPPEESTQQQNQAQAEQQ

With `CCCC[C@@H]1NC(=O)[C@H](CO)NC(=O)[C@H](CC(C)C)NC(=O)[C@H](CCC(=O)O)NC(=O)[C@H](CC(N)=O)NC(=O)[C@@H](NC(=O)[C@H](C)NC(C)=O)CCCCCC=CCCCCC[C@@H](C(=O)N[C@@H](CCCCNC(=O)CBr)C(=O)N[C@@H](Cc2ccccc2)C(=O)N[C@@H](Cc2ccc(O)cc2)C(=O)N[C@@H](CCCNC(=N)N)C(=O)N[C@@H](CC(C)C)C(N)=O)NC(=O)CNC(=O)[C@@H]2CCCN2C(=O)[C@H](CCCNC(=N)N)NC(=O)[C@H]([C@@H](C)O)NC1=O` [17fα] (Ac-A[X1]NELS[Nle]TRPG[X1]K(BrAc)FYRL-NH2; staple 2-12), the “specificity of FtsQ(50–276) modification (number of up-shifted bands)” value is “robust and selective covalent modification”.
